Data as given in patent US20240425478A1, “CYCLOPENTYLPYRAZOLE CDK2 INHIBITORS” (Genentech, Inc., priority 2021, published 2024).
Read-outs that look alike come from different tables or passages of the source.

Legend:
[1] = test system: OVISE (JCRB1043, CCNE1-amplified); test: OVISE EdU incorporation cell proliferation assay (CDK2-dependent); assay type: cell-based; settings: for IC50: cellular assay, read-out: CDK2 OVISE IC50; for FS SKOV-3/OVISE: fold selectivity; for increased fold-selectivity SKOV-3/OVISE over Comparator C: (+) sign after FS SKOV-3/OVISE; for improvement in CDK2 OVISE cell potency over Comparator C: in brackets after OVISE IC50, Comparator C 5.5 μM
Method: (§1) (i) OVISE and SKOV-3 EdU Incorporation Cell Proliferation Assays
(§2) Ovarian cancer cell proliferation is measured by incorporation of EdU (5-ethynyl-2′-deoxyuridine) into newly synthesized DNA. CDK2-dependent proliferation is determined using OVISE (JCRB1043, CCNE1-amplified) while CDK4/6-dependent effect is determined with SKOV-3 (ATCC HTB-77) which is not CCNE1-amplified.
(§3) Cells are plated in 384-well plates in RPMI medium supplemented with 10% FBS. Compounds are added at desired concentrations with a final DMSO content of 0.5%, and cells incubated at 37° C./5% CO2 for 16 hours. EdU (Life Technologies) is added to a final concentration of 0.5 μM and incubation continued for 8 hours, followed by fixation with 4% paraformaldehyde. […] Images are acquired using Yokogawa CQ1 imaging cytometer with a 10×objective. […] The IC50 for inhibition of cell division is determined by fitting the fraction of EdU-positive cells as a function of compound dose using a 4-parameter logistic model.

[2] = target: T1, Cyclin Dependent Kinase 2/Cyclin E1 (CDK2-cycE1) (Homo sapiens, UniProt P24941); test: CDK2-cycE1 TR-FRET (LANCE) enzyme assay; assay type: biochemical; settings: for FS CDK1/CDK2 / FS CDK4/CDK2: fold selectivity; for increased fold-selectivity CDK4/CDK2 over Comparator C: (+) sign after FS CDK4/CDK2; for increased fold-selectivity CDK1/CDK2 over Comparator C: (+) sign after FS CDK1/CDK2;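 on improvement in potency against CDK2 (Ki) over Comparator C: fold lower CDK2 Ki than comparator c (Ki 0.032 µM)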
T1 construct: purchased ProQinase 0050-0055-1
Method: (§4) Cyclin Dependent Kinase 1/Cyclin A2 (CDK1-cycA2), Cyclin Dependent Kinase 2/Cyclin E1 (CDK2-cycE1), Cyclin Dependent Kinase 4/Cyclin D3 (CDK4-cycD3) and Cyclin Dependent Kinase 6/Cyclin D3 (CDK6-cycD3) enzyme assays were carried out as described below.
(ii) CDK2-cycE1 TR-FRET (LANCE®)
(§5) An Echo acoustic dispenser is used to create dose responses of compound dissolved in DMSO into a 384-well microplate. A 5 μL volume of enzyme mix is added to the well, and pre-incubated with compound for 30 minutes. […] Buffer conditions are 50 mM HEPES, pH 7.5, 10 mM MgCl2, 2 mM TCEP, 0.05% BGG and 0.01% Brij 35. The reaction is quenched with 5 μL of EDTA in detection buffer (15 mM [EDTA final]). Finally, a 5 μL TR-FRET detection mix is added to the quenched reaction, which includes Europium labeled anti-phospho-MBP. […] Signal is a ratio of the Acceptor and Donor fluorescence. Inhibition constants are calculated via the Morrison equation. Enzyme source of CDK2-cycE1 is ProQinase, catalog #: 0050-0055-1.

[3] = target: T2, Cyclin Dependent Kinase 1/Cyclin A2 (CDK1-cycA2) (Homo sapiens, UniProt P06493); test: CDK1-cycA2 TR-FRET (Lance) enzyme assay; assay type: biochemical; settings: Table O, enzymatic assay
T2 construct: purchased ProQinase 0134-0054-1
T2 sequence (P06493 whole entry): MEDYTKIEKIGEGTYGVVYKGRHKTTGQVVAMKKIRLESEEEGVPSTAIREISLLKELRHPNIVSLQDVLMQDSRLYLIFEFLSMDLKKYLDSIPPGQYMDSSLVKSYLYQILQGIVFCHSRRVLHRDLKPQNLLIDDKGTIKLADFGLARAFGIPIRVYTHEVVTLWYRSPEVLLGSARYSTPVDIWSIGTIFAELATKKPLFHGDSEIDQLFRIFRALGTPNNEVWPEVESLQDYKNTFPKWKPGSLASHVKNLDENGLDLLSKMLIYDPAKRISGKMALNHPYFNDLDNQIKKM
T2 sequence (P20248 whole entry partner): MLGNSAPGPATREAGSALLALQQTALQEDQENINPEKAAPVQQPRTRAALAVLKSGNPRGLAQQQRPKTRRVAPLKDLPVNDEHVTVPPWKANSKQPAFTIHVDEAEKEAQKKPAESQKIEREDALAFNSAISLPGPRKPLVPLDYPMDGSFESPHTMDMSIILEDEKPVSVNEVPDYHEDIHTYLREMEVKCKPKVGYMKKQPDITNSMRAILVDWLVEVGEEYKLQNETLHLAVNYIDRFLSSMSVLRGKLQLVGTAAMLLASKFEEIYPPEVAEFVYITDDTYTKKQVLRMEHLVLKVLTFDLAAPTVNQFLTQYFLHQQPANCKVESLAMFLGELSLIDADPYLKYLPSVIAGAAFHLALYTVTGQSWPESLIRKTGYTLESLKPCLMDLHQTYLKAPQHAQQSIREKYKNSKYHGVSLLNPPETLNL
Method: as §4
(1) CDK1-cycA2 TR-FRET (Lance®)
as §5, with “anti-phospho-4E-BP1.” for “anti-phospho-MBP.”, “equation.” for “equation. Enzyme source of CDK2-cycE1 is ProQinase, catalog #: 0050-0055-1.”

[4] = test system: SKOV-3 (ATCC HTB-77); test: SKOV-3 EdU incorporation cell proliferation assay (CDK4/6-dependent); assay type: cell-based; settings: Homo sapiens, cellular assay, read-out: CDK4/6 SKOV-3 IC50
Method: as §1, §2, §3

[5] = target: T3, Cyclin Dependent Kinase 4/Cyclin D3 (CDK4-cycD3) (Homo sapiens, UniProt P11802); test: CDK4-cycD3 TR-FRET (LANCE) enzyme assay; assay type: biochemical; settings: Table O, enzymatic assay
T3 construct: purchased Carna Biosciences 04-105
T3 sequence (P11802 whole entry): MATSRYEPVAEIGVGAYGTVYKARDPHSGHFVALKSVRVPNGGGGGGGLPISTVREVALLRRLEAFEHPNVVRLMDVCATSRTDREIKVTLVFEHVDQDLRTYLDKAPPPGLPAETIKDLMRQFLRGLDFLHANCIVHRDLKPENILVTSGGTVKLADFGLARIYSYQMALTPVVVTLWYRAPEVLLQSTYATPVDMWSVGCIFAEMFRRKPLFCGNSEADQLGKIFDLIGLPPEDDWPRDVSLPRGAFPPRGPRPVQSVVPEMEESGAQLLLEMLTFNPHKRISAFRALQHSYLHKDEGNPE
T3 sequence (P30281 whole entry partner): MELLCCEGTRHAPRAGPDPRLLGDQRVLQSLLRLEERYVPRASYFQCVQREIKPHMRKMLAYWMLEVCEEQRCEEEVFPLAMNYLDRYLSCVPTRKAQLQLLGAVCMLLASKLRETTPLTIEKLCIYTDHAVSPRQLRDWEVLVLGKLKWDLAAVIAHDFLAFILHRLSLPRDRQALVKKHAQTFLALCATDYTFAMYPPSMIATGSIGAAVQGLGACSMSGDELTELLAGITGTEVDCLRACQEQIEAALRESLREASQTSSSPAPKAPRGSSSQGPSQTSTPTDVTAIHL
Method: as §4
(iii) CDK4-cycD3 TR-FRET (LANCE®)
as §5, with “anti-phospho-4E-BP1.” for “anti-phospho-MBP.”, “equation.” for “equation. Enzyme source of CDK2-cycE1 is ProQinase, catalog #: 0050-0055-1.”

[6] = Table O, cellular SKOV-3 IC50 over OVISE IC50
[7] = Table O, enzymatic assay, read-out: CDK2 Ki
[8] = Table O, enzymatic CDK1 Ki over CDK2 Ki
[9] = Table O, enzymatic CDK4 Ki over CDK2 Ki
[10] = Table Q, enzymatic assay, read-out: CDK2 Ki
[11] = Table Q, in brackets after CDK2 Ki, Comparator C 0.032 μM

Row | Compound | IC50 ([1]; Table O) [µM] | FS SKOV-3/OVISE [1, 6] | increased fold-selectivity SKOV-3/OVISE over Comparator C ([1]; Table Q) | FS SKOV-3/OVISE ([1]; Table Q, cellular) | improvement in CDK2 OVISE cell potency over Comparator C ([1]; Table Q) [fold] | Ki [2, 7] [µM] | FS CDK1/CDK2 [2, 8] | FS CDK4/CDK2 [2, 9] | increased fold-selectivity CDK4/CDK2 over Comparator C ([2]; Table Q) | Ki [2, 10] [µM] | FS CDK1/CDK2 ([2]; Table Q, enzymatic) | FS CDK4/CDK2 ([2]; Table Q, enzymatic) | Ki [3] [µM] | IC50 ([4]; SK-OV-3, Table O) [µM] | IC50 ([4]; SK-OV-3, Table Q) [µM] | Ki [5] [µM] | improvement in potency against CDK2 (Ki) over Comparator C [2] [fold] | other results
1 | CC(C)NC(=O)O[C@@H]1CC[C@H](c2cc(Nc3ccn(C)c(=O)c3)n[nH]2)C1 [Example 2AA, (1R,3S)-3-(3-((1-methyl-2-oxo-1,2-dihydropyridin-4-yl)amino)-1H-pyrazol-5-y1)cyclopenty1 isopropylcarbamate] | 4.1 | >49 | (+) (The (+) sign in Table Q signifies desirable increased fold-selectivity of the exemplary compounds over Comparator C) | > 4.9 | 1.3 | 0.017 | 26 | 26 | (+) (The (+) sign in Table Q signifies desirable increased fold-selectivity of the exemplary compounds over Comparator C) | 0.017 | 26 | 26 | 0.44 | > 20 | > 20 | 0.45 | – | improvement in potency against CDK2 (Ki) over Comparator C [2, 11]: 1.9 fold
2 | CC(C)NC(=O)O[C@@H]1CC[C@H](c2cc(Nc3cccn(C)c3=O)n[nH]2)C1 [Example 2BB, (1R,3S)-3-(3-((1-methyl-2-oxo-1,2-dihydropyridin-3-yl)amino)-1H-pyrazol-5-y1)cyclopenty1 isopropylcarbamate] | > 20 | 1.0 | – | 1.0 | 0.28 | 1.1 | 29 | 6.3 | – | 1.1 | 29 | 6.3 | 32 | > 20 | > 20 | 6.9 | – | IC50 ([1]; Table Q): > 20 µM; improvement in potency against CDK2 (Ki) over Comparator C [2, 11]: 0.3 fold
3 | CC(C)NC(=O)O[C@@H]1CC[C@H](c2cc(Nc3cc(=O)[nH]cn3)n[nH]2)C1 [Example 2CC, (1R,3S)-3-(3-((6-oxo-1,6-dihydropyrimidin-4-yl)amino)-1H-pyrazol-5-yl)cyclopentyl isopropylcarbamate] | 2 | >10 | (+) (The (+) sign in Table Q signifies desirable increased fold-selectivity of the exemplary compounds over Comparator C) | > 10 | 2.8 | 0.00033 | 100 | 390 | (+) (The (+) sign in Table Q signifies desirable increased fold-selectivity of the exemplary compounds over Comparator C) | 0.00033 | 100 | 390 | 0.034 | > 20 | > 20 | 0.13 | 97 | increased fold-selectivity CDK1/CDK2 over Comparator C ([2]; Table Q): (+) (The (+) sign in Table Q signifies desirable increased fold-selectivity of the exemplary compounds over Comparator C); Ki ([2]; read-out: CDK2 activity / potency (enzymatic assay)): ≤ 0.001 µM
4 | CC(C)NC(=O)O[C@@H]1CC[C@H](c2cc(Nc3ccc(-n4cccn4)nc3)n[nH]2)C1 [Example 2D, (1R,3S)-3-(3-((6-(1H-pyrazol-1-yl)pyridin-3-yl)amino)-1H-pyrazol-5-yl)cyclopentyl isopropylcarbamate] | 0.7 | 20 | (+) (The (+) sign in Table Q signifies desirable increased fold-selectivity of the exemplary compounds over Comparator C) | 20 | 7.9 | 0.014 | 25 | 34 | (+) (The (+) sign in Table Q signifies desirable increased fold-selectivity of the exemplary compounds over Comparator C) | 0.014 | 25 | 34 | 0.35 | 14 | 14 | 0.48 | 2.3 | –
5 | CC(C)NC(=O)O[C@@H]1CC[C@H](c2cc(Nc3ccc(-n4cccn4)cn3)n[nH]2)C1 [Example 2DD, (1R,3S)-3-(3-((5-(1H-pyrazol-1-yl)pyridin-2-yl)amino)-1H-pyrazol-5-yl)cyclopentyl isopropylcarbamate] | 0.61 | 23 | (+) (The (+) sign in Table Q signifies desirable increased fold-selectivity of the exemplary compounds over Comparator C) | 23 | 9 | 0.013 | 52 | 27 | (+) (The (+) sign in Table Q signifies desirable increased fold-selectivity of the exemplary compounds over Comparator C) | 0.013 | 52 | 27 | 0.68 | > 20 | 14 | 0.35 | 2.5 | increased fold-selectivity CDK1/CDK2 over Comparator C ([2]; Table Q): (+) (The (+) sign in Table Q signifies desirable increased fold-selectivity of the exemplary compounds over Comparator C)
6 | COc1ncc(Nc2cc([C@H]3CC[C@@H](OC(=O)NC(C)C)C3)[nH]n2)cn1 [Example 2FF, (1R,3S)-3-(3-((2-methoxypyrimidin-5-yl)amino)-1H-pyrazol-5-yl)cyclopentyl isopropylcarbamate] | 1.2 | >17 | – | – | – | 0.014 | 23 | 68 | – | – | – | – | 0.32 | > 20 | – | 0.95 | – | –
7 | CNc1ncc(Nc2cc([C@H]3CC[C@@H](OC(=O)NC(C)C)C3)[nH]n2)cn1 [Example 2GG, (1R,3S)-3-(3-((2-(methylamino)pyrimidin-5-yl)amino)-1H-pyrazol-5-yl)cyclopentyl isopropylcarbamate] | > 20 | 1 | – | – | – | 0.48 | 18 | 31 | – | – | – | – | 8.8 | > 20 | – | 15 | – | –
8 | COCCn1nc(Nc2cc([C@H]3CC[C@@H](OC(=O)NC(C)C)C3)[nH]n2)ccc1=O [Example 2II, (1R,3S)-3-(3-((1-(2-methoxyethyl)-6-oxo-1,6-dihydropyridazin-3-y1)amino)-1H-pyrazol-5-y1)cyclopentyl isopropylcarbamate] | 2.6 | >7.7 | – | – | – | 0.0096 | 11 | 99 | – | – | – | – | 0.11 | > 20 | – | 0.95 | – | –
